The text below walks through data of US20100160443A1, “COMPOUNDS USEFUL FOR TREATING NEUROLOGICAL DISORDERS” (Yissum Research Development Company of The Hebrew …, priority 2003, published 2010).

For data set [1], the system named is motor performance (rotarod test). The data set can be described thus: Neurological motor dysfunction tests (accelerating rotarod, observation for sedation). The conditions noted are these: for motor performance, time to fall off the rotarod: n=6, vehicle 118.0±2.3; for effect on motor performance (rotarod test) compared to vehicle: highest doses tested (VPA 400, DID 90 mg kg^−1 i.p.), p>0.05, n=6; for neurological motor dysfunction or sedation at the highest drug dose tested: normal rats. Here is the method:
On the day of testing, a baseline response was obtained, and rats were subsequently administered drug or vehicle. […] In addition, we examined our rats individually for signs of motor dysfunction and sedation as assessed by posture and gate during spontaneous and induced movement, grooming, chewing, stepping reflex, and startle reflex evoked by tapping on the cage.
For each drug and dose, attenuation of tactile allodynia (threshold measured in g) was measured. […] These areas under the response curve values for every group of rats per dose were evaluated against vehicle treatment using the nonparametric Wilcoxon one tailed test (dose of drug tested vs. vehicle on the same treatment). […] A p value <0.05 was considered statistically significant.

Data set [2] in a line: Plasma drug concentration and pharmacokinetics after i.p. administration to SNL operated rats. It is filed as in vivo, rat. The note with it: for minimal plasma concentration associated with the antiallodynic effect: SNL rats; for CL/F / Cmax / MRT / Tmax / half-life: rat, ip. Here is the method: 0.5% MC, and […] of blood were collected from the amputated tail tip at each of three time points after injection. Blood was withdrawn for group 1 at 15, 60 and 180 min after dosing; for group 2 at 30, 90 and 240 min after dosing and for group 3 at 45, 120 and 360 min after dosing. Plasma was immediately separated by centrifugation at 3000 g for 15 min and stored at −20° C. until analyzed.
Plasma levels of VPA and DID were determined by gas chromatography (GC). An HP5890 series II GC equipped with FID detector, HP7673 autosampler, for DID HP-5 capillary column (0.25 μm×15 m×0.25 mm) was used. The temperature program was as follows: injector temperature 250° C.; initial temperature, 60° C. for 3 min; gradient of 15° C. min-1 until 180° C.; hold 5 min. For each drug, plasma levels obtained from 3 rats at each time point were averaged. 25 μl of internal standard solution (50 mg L^−1 of VPD for the DID assay) and 200 μl of 0.1M NaOH were added to 50 μl of plasma. The mixture was vortexed, and 1 ml of chloroform was added. The phases were separated, and the chloroform was evaporated. The dry residue was redissolved in 50 μl of chloroform, and 1 μl was injected into the gas chromatograph. Calibration curves were prepared separately by spiking naïve rat plasma samples with 1.56, 2.5, 3.12, 6.25, 12.5, 25.0, 37.5, 50.0, 75.0 and 100.0 mg L^−1 of DID. The limit of quantification (LOQ) of the method was 1.56 μg/ml, and the coefficient of variation (CV %) was <15% at all analyzed concentrations including LOQ.
The temperature program was as follows: injector temperature 280° C.; oven temperature, 135° C. 30 μl of internal standard solution (250 mg L-1 of 1-methyl-1cyclohexane carboxylic acid, MCCA, in MeOH) and 125 μl of 5N Hydrochloric acid (HCl) were added to 250 μl of plasma. The mixture was vortexed, and 2 ml of chloroform was added. The phases were separated, and the 1 ml of NaOH was added. 200 μl of HCl 5N and 2 ml of chloroform were added to the aqueous phase. The organic layer was evaporated and dry residue was redissolved in 50 μl of chloroform, and 30 μl was injected into the gas chromatograph. […] LOQ of the method was 25 mg L-1, and the coefficient of variation (CV %) was <15% at all analyzed concentrations including LOQ.
PK parameters were determined by non-compartmental analysis using the pharmacokinetic software package WinNonlin, version 4.0.1 (SCI Software, Lexington, Ky., U.S.A.; Yamaoka, et al., 1978 (YAMAOKA, K., […], T., & UNO, T. (1978). Statistical moments in pharmacokinetics. J Pharmacokinet. Biopharm., 6, 547-558); Gibaldi & Perrier, 1982 (GIBALDI, M., & PERRIER, D. (1982). Pharmacokinetics (2nd ed.). pp. 199-219 Marcel Dekker: New York); Rowland & Tozer, 1995 (ROWLAND, M., & TOZER, T. (1995). Pharmacological Response. In: Clinical Pharamcokeintics. pp. 340-365) Baltimore: Williams & Wilkins)). The terminal half-life (t½) was calculated as 0.693/β, where β is the linear terminal slope of the concentration (C)-versus-time curve. The area under the C-versus-time curve (AUC) was calculated by trapezoidal rule with extrapolation to infinity. The mean residence time (MRT) was calculated from the quotient AUMC/AUC, where AUMC is the area under the concentration-time product versus time curve from zero to infinity. Total (apparent) clearance (CL/F) was calculated from the quotient of […] with F being the absolute bioavailability following i.p. administration. The apparent volume of distribution (Vβ/F) was calculated from the quotient of CL and β. The peak plasma concentration (Cmax) and the time to reach Cmax (tmax) were determined empirically by visual inspection.

Setting [3] is: DID 40 mg kg^−1 i.p., plasma, SNL operated rats.

For the molecule `CC(C)C(C(N)=O)C(C)C` [DID, diisopropylacetamide], in data set [1] (DID 90 mg kg^−1 i.p., 120 min after dosing), the “motor performance, time to fall off the rotarod” value was 103.8 ± 22.3 s. For the same molecule, in data set [1], the “effect on motor performance (rotarod test) compared to vehicle” value is listed as “no significant effect” and the “neurological motor dysfunction or sedation at the highest drug dose tested” value is given as “not sufficient to cause neurological motor dysfunction or sedation”. For the same molecule, in data set [2] (DID 40 mg kg^−1 i.p.), the “minimal plasma concentration associated with the antiallodynic effect” value worked out at 7 mg/L. Moreover, in data set [2] (setting [3]), the Vβ/F turned out to be 1.2 L/kg; the CL/F (as a rule, the apparent clearance, not corrected for the fraction that reaches the circulation) is 8.33 mL/min/kg; the concentration peaked (Cmax) at 28 µg/mL; the MRT (commonly a mean duration of stay, worked out from the concentration-time curve) was 2.4 h. Also, in data set [2] (setting [3]), the Tmax (commonly the time from dosing to the highest level) is 15 min and the half-life (as a rule, how long it takes for the measured level to halve) is 90 min.

For the molecule `CCCC(CCC)C(=O)O` [VPA, Valproic acid, reference compound], the “motor performance, time to fall off the rotarod” value in data set [1] (VPA 400 mg kg^−1 i.p., 60 min after dosing) was 96.8 ± 23.7 s. Besides, in data set [1], the “effect on motor performance (rotarod test) compared to vehicle” value is on record as “no significant effect” and the “neurological motor dysfunction or sedation at the highest drug dose tested” value is on record as “not sufficient to cause neurological motor dysfunction or sedation”. Moreover, the “minimal plasma concentration associated with the antiallodynic effect” value in data set [2] (VPA 300 mg kg^−1 i.p.) was 125 mg/L. Moreover, in data set [2] (plasma, 300 mg/kg), the CL/F is 3.33 mL/min/kg; the Cmax (as a rule, the peak of the concentration-time curve) amounted to 515 µg/mL; the MRT is 5.8 h; the Tmax is 30 min. The half-life in data set [2] (plasma, 300 mg/kg) was 276 min.
